The numbers were not newly measured in US7026316B2, “Dipeptidyl peptidase inhibitors for the treatment or prevention of diabetes” (Merck & Co., Inc., priority 2001, dated 2006), which cites them from elsewhere.

One series has as its system rats. Particulars: survival doubled from day 7 to day 14.
For a further series, the system named is mouse. Particulars: cyclophosphamide-induced neutropenia.
For a further series, the target named is DP-IV (Homo sapiens, UniProt P27487).

Each structure is given as a SMILES string.

DP-IV, sequence (P27487 whole entry): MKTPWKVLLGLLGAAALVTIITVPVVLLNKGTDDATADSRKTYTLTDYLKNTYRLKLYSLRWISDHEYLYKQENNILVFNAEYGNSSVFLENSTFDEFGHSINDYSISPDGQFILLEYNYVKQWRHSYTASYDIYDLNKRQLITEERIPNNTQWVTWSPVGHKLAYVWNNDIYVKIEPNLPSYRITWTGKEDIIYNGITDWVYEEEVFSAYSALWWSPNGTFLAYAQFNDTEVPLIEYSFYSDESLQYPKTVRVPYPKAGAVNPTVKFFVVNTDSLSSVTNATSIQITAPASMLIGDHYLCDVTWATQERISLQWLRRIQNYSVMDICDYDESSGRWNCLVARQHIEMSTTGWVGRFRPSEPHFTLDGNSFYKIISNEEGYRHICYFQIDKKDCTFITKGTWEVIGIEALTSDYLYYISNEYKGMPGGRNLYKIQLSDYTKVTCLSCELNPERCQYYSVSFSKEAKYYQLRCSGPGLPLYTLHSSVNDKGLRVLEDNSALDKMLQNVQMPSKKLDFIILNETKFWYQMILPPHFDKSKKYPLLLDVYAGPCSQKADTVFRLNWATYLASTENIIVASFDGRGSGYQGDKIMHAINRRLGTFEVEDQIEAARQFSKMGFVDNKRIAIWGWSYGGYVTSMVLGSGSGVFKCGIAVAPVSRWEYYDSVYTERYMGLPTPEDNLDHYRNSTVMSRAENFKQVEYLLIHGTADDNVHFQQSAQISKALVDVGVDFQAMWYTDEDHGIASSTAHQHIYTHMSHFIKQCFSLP

As for `CC(C)N1CCC(c2ccccc2)(c2ccccc2)CC1` [Prodipine, Pro-Pro-diphenyl-phosphonate], the cardiac allograft survival with rats was 14 day.

On to `CC(C)[C@H](N)C(=O)N1CCC[C@H]1B(O)O` [Val-Boro-Pro], for which, in the series on mouse, the hematopoiesis result was “stimulated hematopoiesis”. On to `CC[C@H](C)[C@H](N)C(=O)N1CCC[C@H]1C(=O)N[C@H](C(=O)O)[C@@H](C)CC` [diprotin A], for which the “degradation of GRH in plasma to GRH[3-44]” value at DP-IV was “prevented”.
